One data set concerns ST HDH cells (Q111, Q7). Nature of the data set: Active mitochondrial mass in ST HDH cells, MitoTracker. In kind it is cell-based, mouse. How it is done: The impact on mitochondrial function was assessed in ST HDH cells (mouse striatal cell line) expressing either HTT with a 111 polyglutamine stretch (Q111) or a 7 polyglutamine stretch (Q7), thereby serving as a model of HD. The cells were stimulated with P1 at timepoints between 0-24 hours and mitochondrial mass was subsequently measured using MitoTracker—a probe which binds to active mitochondria. Signal was measured in plate-reader at ex/em […].

Data set [1] is described as follows: Plasma stability, mouse plasma. In kind it is in vitro ADME. The settings on record: 2 μM, 37° C. How it is done:
Mouse or human plasma were incubated with 2 μM of P1 (SEQ ID NO: 1) or propantheline bromide (positive control for degradation) and left at 37° C. At each time point, stop solution was added to precipitate the solution and after mixing and centrifugation, supernatant was used for LCMS analysis.

Data set [2] has as its system BDNF, TrkB, PGC1a, DARPP32. Nature of the data set: Neurotrophic and mitochondrial proteins in cortex of R6/2 mice after daily SC administration. It is filed as in vivo, mouse. Particulars: 13 mg/kg SC daily, 8 to 12 weeks of age. How it is done:
In a separate study, we validated target engagement of P1 (SEQ ID NO: 1) in R6/2 mice (mouse model of Huntington's), when treated for a prolonged period in the late stage of disease in this model. R6/2 mice were obtained from the Jackson Laboratory as: • FEMALE B6CBA-Tg(HDexon1)62Gpb/3J, stock 006494. Hemizygous (R6/2) • FEMALE B6CBA-Tg(HDexon1)62Gpb/3J, stock 006494. NonCarrier (WT controls)
The R6/2 mice were injected with a daily dose of 13 mg/kg of P1 subcutaneously in 4.38 mM L-His, 140 mM NaCl, 0.2% Tween-20 and 1500 IU hyaluronidase (pH 6.15) between 8 weeks to 12 weeks of age. At 12 weeks of age, mice were sacrificed and their brains removed and both hippocampus—cortex and striatal tissue was isolated and lysed in RIPA lysis buffer containing containing cOmplete and phosSTOP.
Levels of both BDNF and its receptor, TrkB, were validated along with levels of the mitochondrial master regulator PGC1a. In addition, levels of DARPP32, a marker of medium spiny neurons (MSN), which are the neurons that ultimately perish in HD, were evaluated in cortex tissue.

A short description of data set [3]: Stability in L-His buffer formulation with hyaluronidase. Particulars: up to 7 days. In kind it is physicochemical. The method, then:
Buffer solution containing 4.4 mM L-histidine, 140 mM NaCl, 0.2% w/V Tween 20 and 1500 IU/mL hyaluronidase was incubated with 1 mM P1 at −20° C., 4° C. and 25° C. for up to 7 days. LCMS was used to ascertain the amount of P1 remaining in the solutions.

The nature of data set [4]: Mouse brain homogenate stability. It is filed as in vitro ADME. Particulars: 2 μM, read-out: T½ in brain homogenate. The method, then:
Mouse brain homogenate was incubated with 2 μM of P1 or 7-Ethoxycoumarin (positive control of degradation). Enzymatic reactions were stopped at timepoints between 0-240 min and samples analysed by LCMS. For test with protease inhibitors, brain homogenate was pre-incubated for 30 minutes with protease inhibitors prior to incubation with P1. For brain homogenate binding, 2 μM of P1 or propranolol (positive control) were added to mouse brain homogenate and incubated at 37° C. for 30 minutes. To prepare the protein-free samples (F samples) to be used for unbound determination, an aliquot of the pre-incubated matrix containing test compound or control compound was transferred to ultracentrifuge tubes and subjected to ultracentrifugation at 37° C., 35000 rpm for 4 hrs. In parallel, brain homogenate was incubated for 4.5 hrs to determine total levels after incubation.

The test system of the next data set is GRN. Nature of the data set: GRN levels in hippocampus of wild-type mice after 7 days daily SC treatment. Particulars: 13 mg/kg SC daily for 7 days, sacrificed on day 8. It is filed as in vivo, mouse. The method, then:
Wild-type mice were injected with a daily dose of 13 mg/kg of P1 (SEQ ID NO: 1) subcutaneously in 4.38 mM L-His, 140 mM NaCl, 0.2% Tween-20 and 1500 IU hyaluronidase (pH 6.15) for 7 days. The mice were sacrificed on day 8. The hippocampus was isolated and lysed using a TissueLyser in RIPA lysis buffer containing cOmplete and phosSTOP. Levels of GRN (ab HPA008763 from Sigma) was validated by western blotting normalized to beta-actin. Student's t-test was used for statistical analysis.

Another data set deals with CREB and AMPK. Nature of the data set: CREB and AMPK activation in brain of wild-type mice after subcutaneous injection. In kind it is in vivo, mouse. Particulars: SC. The method, then:
To assess the subcutaneous administration route of peptide P1, 8 weeks old wild-type mice were subcutaneously injected with different doses ranging between 0.13 to 26 mg/kg of peptide P1 dissolved in 4.38 mM L-His, 140 mM NaCl, 0.2% Tween-20 and 1500 IU hyaluronidase (pH 6.15). Likewise, was an earlier lead peptide constituting a linear version of P1 attached to a cell-penetrating moiety (P9, SEQ ID NO: 9), tested for its ability to activate CREB in both striatum and hippocampus (in a separate study) following subcutaneous injection with 3.6 mg/kg. 2 hours after injection the mice were sacrificed by cervical dislocation and striatal tissue was isolated by dissection and snap frozen in liquid nitrogen and stored at −80° C. until further use. To assess the activation of CREB and AMPK, the tissue was lysed using a TissueLyser in lysis buffer containing cOmplete and DTT. The samples were subsequently homogenized by sonication. The phosphorylation of CREB on serine 133 and threonine 172 on AMPK was subsequently validated by western blotting and the levels of were normalized to beta-actin. Student's t-test was used for statistical analysis.

The test system of another data set is BDNF, TFEB and PGC1a. Briefly: CREB-downstream target levels in wild-type cortical neurons. It is filed as cell-based, mouse. Particulars: 1 uM, 4 hours or 6 hours. How it is done: Cortical neurons were isolated from p0 wild-type mice and seeded in a density of 200,000 per well (24-well tray). After 7 days in vitro the neurons were stimulated with 1 uM P1 in neurobasal A media and incubated at 37° C. and 5% CO2 for 4 hours or 6 hours. Hereafter, the neurons were lysed in RIPA lysis buffer containing cOmplete cocktail protease inhibitor.

Where a SMILES comes first, the peptide text is derived from it. A value given as a limit tells only on which side of the number the result lay.

On to `CSCC[C@@H]1NC(=O)[C@H](C(C)C)NC(=O)[C@H](CC(=O)O)NC(=O)[C@H](CCC(=O)O)NC(=O)[C@H](CCC(=O)O)NC(=O)[C@H](Cc2c[nH]cn2)NC(=O)[C@H](CCC(=O)O)NC(=O)[C@H](C(C)C)NC(=O)[C@@H]2CCCN2C(=O)[C@H](CCC(=O)O)NC(=O)[C@H]([C@@H](C)O)NC1=O` [Peptide P1, [MTEPVEHEEDV]] (cyclo(MTEPVEHEEDV)), for which the mitochondrial mass result in the data set on ST HDH cells (Q111, Q7) (Q7 cells) is on record as “mitochondrial mass is increased”. In addition, in the data set with ST HDH cells (Q111, Q7) (Q111 cells, 24 hours), the mitochondrial mass result is listed as “increased above the baseline from the healthy cell line”. The compound further returned a half-life in data set [1] greater than 4.82 h. Besides, in data set [2], the “BDNF levels in cortex” value is recorded as “significantly higher basal levels”, the “DARPP32 levels in cortex” value is given as “tendency to increase”, the “PGC1a levels in cortex” value is “significantly higher basal levels” and the “TrkB levels in cortex” value is on record as “significantly higher basal levels”. The “stability in buffer (amount remaining, LCMS)” value in data set [3] (1 mM P1, 4° C.) is “no stability issues”. In data set [3] (1 mM P1, 25° C.), the “stability in buffer (amount remaining, LCMS)” value is listed as “could affect stability after 4 days”. Also, in data set [3] (1 mM P1, −20° C.), the “stability in buffer (amount remaining, LCMS)” value is reported as “no stability issues”. The half-life in data set [4] is 4.08 h. For the same compound, in the data set with GRN, the “GRN levels in hippocampus” value was “higher levels of GRN”. For the same compound, the “dose resulting in the highest efficacy” value with CREB and AMPK (CREB and AMPK activation in striatum) is 13 mg/kg. The pAMPK in striatum entry with CREB and AMPK (doses between 0.13-13 mg/kg, 2 hours after injection) is on record as “significantly activated”. Also, the “pCREB (S133) in striatum” value with CREB and AMPK (doses between 0.13-26 mg/kg, 2 hours after injection) is recorded as “significantly activated”. In the data set with BDNF, TFEB and PGC1a, the BDNF level entry is “upregulated”, the PGC1a level entry was “upregulated” and the TFEB level result is reported as “upregulated”.

These data come from patent publication US20230312652A1, “NOVEL PEPTIDES AND USES THEREOF” (Aarhus Universitet, priority 2020, published 2023).
